Measured values taken from DBAASP.
In brackets after ≈: the same amount, converted by molar mass. Values belong to the molecule of their own block, whether it stands above or below them.

What was measured:
Assay in all cases: ≥ marks a high value that may be exact or a test limit, other limits are often not marked, values filed in µg/mL are converted to µM
[1] = system: Staphylococcus aureus ATCC 25923
Nocardia asteroides = system: Nocardia asteroides
[2] = system: Enterococcus faecalis 981
Escherichia coli DC2 = system: Escherichia coli DC2
[3] = system: Pseudomonas aeruginosa Z61
[4] = system: Staphylococcus aureus C623
Candida albicans C627 = system: Candida albicans C627
[5] = system: Salmonella enterica subsp. enterica serovar Typhimurium ATCC 14028s
[6] = system: Staphylococcus epidermidis C621
Escherichia coli UB1005 = system: Escherichia coli UB1005
[7] = system: Aeromonas salmonicida 99-1
[8] = system: Aeromonas salmonicida 97-4
[9] = system: Salmonella enterica serovar typhimurium MS7953s
[10] = system: Pseudomonas aeruginosa K799
[11] = system: Escherichia coli CGSC 4908
[12] = system: Trichosporon beigelii KCTC 7251
[13] = system: Escherichia coli KCTC 1682
[14] = system: Fusarium oxysporum KCTC 6084
Proteus vulgaris = system: Proteus vulgaris
[15] = system: Bacillus subtilis KCTC 1918
[16] = system: Staphylococcus aureus KCTC 1621
[17] = system: Bacillus megaterium KCTC 1096
[18] = system: Candida albicans KCTC 7121
[19] = system: Pseudomonas aeruginosa KCTC 1637
[20] = system: Aspergillus flavus KCTC 7375
[21] = system: Aspergillus fumigatus IP1025-70
[22] = system: Cryptococcus neoformans IP960-67
[23] = system: Candida albicans IP884-65
[24] = system: Aspergillus niger IP218-53
[25] = system: Aeromonas caviae IP67-16T
[26] = system: Nocardia brasiliensis IP16-80
[27] = system: Trichophyton simii IP1063-74
[28] = system: Enterococcus faecalis IP103214
[29] = system: Staphylococcus aureus IP76-25
Escherichia coli IP76-24 = system: Escherichia coli IP76-24
[30] = system: Saccharomyces cerevisiae IP118079

SMILES: CC[C@H](C)[C@H](NC(=O)[C@H](CCCCN)NC(=O)[C@@H]1CCCN1C(=O)[C@H](CC(C)C)NC(=O)[C@H](CC(C)C)NC(=O)[C@H](CO)NC(=O)CNC(=O)[C@H](CC(C)C)NC(=O)[C@H](C)NC(=O)CNC(=O)[C@H](CC(C)C)NC(=O)[C@H](CC(C)C)NC(=O)[C@H](Cc1ccccc1)NC(=O)[C@@H]1CCCN1C(=O)[C@H](Cc1ccccc1)NC(=O)[C@@H](N)Cc1ccccc1)C(=O)N[C@@H](Cc1ccccc1)C(N)=O [FFPFLLGALGSLLPKIF]
- MIC [1]: 12.5 µM (≈ 23.5 µg/mL)
- MIC (Nocardia asteroides): 6.3 µM (≈ 11.8 µg/mL)
- MIC [2]: 25 µM (≈ 47 µg/mL)

SMILES: CC[C@H](C)[C@H](NC(=O)[C@H](Cc1cnc[nH]1)NC(=O)[C@H](CCCCN)NC(=O)[C@H](C)NC(=O)[C@H](C)NC(=O)[C@H](Cc1cnc[nH]1)NC(=O)[C@H](CCCNC(=N)N)NC(=O)CNC(=O)[C@H](Cc1cnc[nH]1)NC(=O)[C@H](CCCCN)NC(=O)[C@H](Cc1ccccc1)NC(=O)[C@@H](NC(=O)[C@H](CO)NC(=O)CNC(=O)[C@H](Cc1c[nH]c2ccccc12)NC(=O)CN)[C@@H](C)CC)C(=O)NCC(=O)N[C@@H](Cc1cnc[nH]1)C(=O)N[C@@H](C)C(=O)N[C@@H](C)C(=O)N[C@H](C(=O)N[C@@H](CC(N)=O)C(=O)N[C@@H](Cc1cnc[nH]1)C(=O)N[C@@H](Cc1ccc(O)cc1)C(=O)N[C@@H](CC(C)C)C(C)=O)C(C)C [GWGSIFKHGRHAAKHIGHAAVNHYL]
- MIC (Escherichia coli DC2): 0.723 µM (≈ 2 µg/mL)
- MIC [3]: 1.45 µM (≈ 4 µg/mL)
- MIC [4]: 11.6 µM (≈ 32 µg/mL)
- MIC (Candida albicans C627): 11.6 µM (≈ 32 µg/mL)
- MIC [5]: 23.1 µM (≈ 64 µg/mL)
- MIC [6]: 23.1 µM (≈ 64 µg/mL)
- MIC (Escherichia coli UB1005): 1.45 µM (≈ 4 µg/mL)
- MIC [7]: 1.45 µM (≈ 4 µg/mL)
- MIC [8]: 1.45 µM (≈ 4 µg/mL)
- MIC [9]: 1.45 µM (≈ 4 µg/mL)
- MIC [10]: 5.79 µM (≈ 16 µg/mL)
- MIC [11]: 1.45 µM (≈ 4 µg/mL)

SMILES: CC[C@H](C)[C@H](NC(=O)CNC(=O)[C@H](CCCCN)NC(=O)[C@H](CC(C)C)NC(=O)[C@H](CCSC)NC(=O)[C@H](CC(N)=O)NC(=O)[C@H](CCCCN)NC(=O)[C@H](Cc1c[nH]c2ccccc12)NC(=O)[C@H](CC(C)C)NC(=O)[C@H](C)N)C(=O)NCC(=O)N[C@@H](CCCCN)C(=O)N[C@@H](CC(C)C)C(=O)N[C@@H](C)C(=O)NCC(=O)N[C@@H](CCCCN)C(N)=O [ALWKNMLKGIGKLAGK]
- MIC [21]: 8 µM (≈ 13.8 µg/mL)
- MIC [22]: 2 µM (≈ 3.45 µg/mL)
- MIC [23]: 8 µM (≈ 13.8 µg/mL)
- MIC [24]: 15 µM (≈ 25.9 µg/mL)
- MIC [25]: 2 µM (≈ 3.45 µg/mL)
- MIC [26]: ≥ 70 µM
- MIC [27]: 8 µM (≈ 13.8 µg/mL)
- MIC [28]: 2 µM (≈ 3.45 µg/mL)
- MIC [29]: ≥ 60 µM
- MIC (Escherichia coli IP76-24): 2 µM (≈ 3.45 µg/mL)
- MIC [30]: 4 µM (≈ 6.91 µg/mL)

SMILES: CC[C@H](C)[C@H](NC(=O)CNC(=O)[C@H](CCCCN)NC(=O)[C@H](CC(C)C)NC(=O)[C@H](CCSC)NC(=O)[C@H](CC(N)=O)NC(=O)[C@H](CCCCN)NC(=O)[C@H](Cc1c[nH]c2ccccc12)NC(=O)[C@H](CC(C)C)NC(=O)[C@H](C)N)C(=O)NCC(=O)N[C@@H](CCCCN)C(=O)N[C@@H](CC(C)C)C(=O)N[C@@H](C)C(=O)NCC(=O)N[C@@H](CCCCN)C(=O)N[C@@H](C)C(=O)N[C@@H](C)C(=O)N[C@@H](CC(C)C)C(=O)NCC(N)=O [ALWKNMLKGIGKLAGKAALG]
- MIC [21]: 15 µM (≈ 30.6 µg/mL)
- MIC [22]: 1 µM (≈ 2.04 µg/mL)
- MIC [23]: 4 µM (≈ 8.16 µg/mL)
- MIC [24]: 15 µM (≈ 30.6 µg/mL)
- MIC [25]: 2 µM (≈ 4.08 µg/mL)
- MIC [26]: 30 µM (≈ 61.2 µg/mL)
- MIC [27]: 15 µM (≈ 30.6 µg/mL)
- MIC [28]: 2 µM (≈ 4.08 µg/mL)
- MIC [29]: 8 µM (≈ 16.3 µg/mL)
- MIC (Escherichia coli IP76-24): 2 µM (≈ 4.08 µg/mL)
- MIC [30]: 4 µM (≈ 8.16 µg/mL)

Second part, the molecule after the results:

- MIC [12]: ≥ 50 µM
- MIC [13]: 12.5 µM (≈ 25.7 µg/mL)
- MIC [14]: ≥ 100 µM
- MIC (Proteus vulgaris): 3.12 µM (≈ 6.43 µg/mL)
- MIC [15]: 0.78 µM (≈ 1.61 µg/mL)
- MIC [16]: 3.12 µM (≈ 6.43 µg/mL)
- MIC [17]: 1.56 µM (≈ 3.21 µg/mL)
- MIC [18]: ≥ 50 µM
- MIC [19]: 1.56 µM (≈ 3.21 µg/mL)
- MIC [20]: ≥ 100 µM
SMILES: CC[C@H](C)[C@H](NC(=O)[C@H](CCCCN)NC(=O)[C@H](CCCCN)NC(=O)[C@H](Cc1ccccc1)NC(=O)[C@H](Cc1c[nH]c2ccccc12)NC(=O)[C@@H](N)CCCCN)C(=O)N1CCC[C@H]1C(=O)N[C@@H](CCCCN)C(=O)N[C@@H](Cc1ccccc1)C(=O)N[C@@H](CC(C)C)C(=O)N[C@@H](Cc1cnc[nH]1)C(=O)N[C@@H](CC(C)C)C(=O)N[C@@H](C)C(=O)N[C@@H](CCCCN)C(=O)N[C@@H](CCCCN)C(=O)N[C@@H](Cc1ccccc1)C(N)=O [KWFKKIPKFLHLAKKF]

- MIC [12]: ≥ 50 µM
- MIC [13]: 6.25 µM (≈ 13.6 µg/mL)
- MIC [14]: ≥ 50 µM
- MIC (Proteus vulgaris): 1.56 µM (≈ 3.39 µg/mL)
- MIC [15]: 0.78 µM (≈ 1.69 µg/mL)
- MIC [16]: 3.12 µM (≈ 6.79 µg/mL)
- MIC [17]: 1.56 µM (≈ 3.39 µg/mL)
- MIC [18]: ≥ 50 µM
- MIC [19]: 1.56 µM (≈ 3.39 µg/mL)
- MIC [20]: ≥ 50 µM
SMILES: CC[C@H](C)[C@H](NC(=O)[C@H](CCCCN)NC(=O)[C@H](CCCCN)NC(=O)[C@H](Cc1ccccc1)NC(=O)[C@H](CC(C)C)NC(=O)[C@H](CCCCN)NC(=O)[C@@H](N)Cc1c[nH]c2ccccc12)C(=O)N1CCC[C@H]1C(=O)N[C@@H](CCCCN)C(=O)N[C@@H](Cc1ccccc1)C(=O)N[C@@H](CC(C)C)C(=O)N[C@@H](Cc1cnc[nH]1)C(=O)N[C@@H](CC(C)C)C(=O)N[C@@H](C)C(=O)N[C@@H](CCCCN)C(=O)N[C@@H](CCCCN)C(=O)N[C@@H](Cc1ccccc1)C(N)=O [WKLFKKIPKFLHLAKKF]

- MIC (Escherichia coli DC2): 29.4 µM (≈ 64 µg/mL)
- MIC [3]: 14.7 µM (≈ 32 µg/mL)
- MIC [4]: 29.4 µM (≈ 64 µg/mL)
- MIC (Candida albicans C627): 29.4 µM (≈ 64 µg/mL)
- MIC [5]: 29.4 µM (≈ 64 µg/mL)
- MIC [6]: 29.4 µM (≈ 64 µg/mL)
- MIC (Escherichia coli UB1005): 29.4 µM (≈ 64 µg/mL)
- MIC [7]: ≥ 58.9 µM
- MIC [8]: ≥ 58.9 µM
- MIC [9]: 29.4 µM (≈ 64 µg/mL)
- MIC [10]: 29.4 µM (≈ 64 µg/mL)
- MIC [11]: 29.4 µM (≈ 64 µg/mL)
SMILES: CC[C@H](C)[C@H](NC(=O)[C@H](CCCNC(=N)N)NC(=O)[C@H](CCCNC(=N)N)NC(=O)[C@H](CC(C)C)NC(=O)[C@@H](N)Cc1c[nH]c2ccccc12)C(=O)NCC(=O)N[C@@H](CCCCN)C(=O)NCC(=O)N[C@H](C(=O)N[C@@H](CCCCN)C(=O)N[C@H](C(=O)N[C@H](C(=O)NCC(=O)NCC(=O)N[C@@H](C)C(=O)N[C@@H](C)C(=O)N[C@@H](CC(C)C)C(=O)N[C@@H](CC(=O)O)C(=O)N[C@@H](Cc1cnc[nH]1)C(=O)N[C@@H](CC(C)C)C(N)=O)[C@@H](C)CC)[C@@H](C)CC)C(C)C [WLRRIGKGVKIIGGAALDHL]
